Reference: patent US20170050957A1, “4-AMINO-6-(HETEROCYCLIC)PICOLINATES AND 6-AMINO-2-(HETEROCYCLIC)PYRIMIDINE-4-CARBOXYLATES AND THEIR USE AS HERBICIDES” (Dow AgroSciences LLC, priority 2013, published 2017)
Read-outs that look alike come from different tables or passages of the source.

Experiments:
[1] = test system: Key Broadleaf Weed and Crop Species; experiment: Post-emergent Test II herbicidal activity (Table 15); type: in vivo; conditions: post-emergence, 336 h, 14 d; for pest or weed control at 35 g/ha: 35 g ai/ha; for pest or weed control at 70 g/ha: 70 g ai/ha; for pest or weed control at 140 g/ha: 140 g ai/ha
How it was run: (§1)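 Plants at first-second true leaf stage, grown 7-21 d in greenhouse (~15 h photoperiod, 23-29 °C day), were track-sprayed at 187 L/ha with compound in acetone/DMSO/water/isopropanol/crop oil/Triton X-155 at a high rate plus 1/2× to 1/16× dilutions. Injury scored visually after 14 d versus untreated plants, 0 (none) to 100% (complete kill).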

[2] = test system: Key Grass and Sedge Weeds as well as Grass Crops; experiment: Post-emergent Test II herbicidal activity (Table 16); type: in vivo; conditions: post-emergence, 336 h, 14 days after application; for pest or weed control at 35 g/ha: 35 g ai/ha; for pest or weed control at 70 g/ha: 70 g ai/ha; for pest or weed control at 140 g/ha: 140 g ai/ha
How it was run: as §1

[3] = Abutilon theophrasti, velvetleaf (Abutilon theophrasti), read-out: Visual Growth Reduction (%) 14 Days After Application, ABUTH
[4] = Amaranthus retroflexus, redroot pigweed (Amaranthus retroflexus), read-out: Visual Growth Reduction (%) 14 Days After Application, AMARE
[5] = Brassica napus, oilseed rape, canola (Brassica napus), read-out: Visual Growth Reduction (%) 14 Days After Application, BRSNN
[6] = Chenopodium album, lambsquarters (Chenopodium album), read-out: Visual Growth Reduction (%) 14 Days After Application, CHEAL
[7] = Euphorbia heterophylla, wild poinsettia (Euphorbia heterophylla), read-out: Visual Growth Reduction (%) 14 Days After Application, EPHHL
[8] = Helianthus annuus, sunflower (Helianthus annuus), read-out: Visual Growth Reduction (%) 14 Days After Application, HELAN
[9] = Cyperus esculentus, yellow nutsedge (Cyperus esculentus), read-out: Visual Growth Reduction (%) 14 Days After Application CYPES
[10] = Echinochloa crus-galli, barnyardgrass (Echinochloa crus-galli), read-out: Visual Growth Reduction (%) 14 Days After Application ECHCG
[11] = Oryza sativa, rice (Oryza sativa), read-out: Visual Growth Reduction (%) 14 Days After Application ORYSA
[12] = Setaria faberi, giant foxtail (Setaria faberi), read-out: Visual Growth Reduction (%) 14 Days After Application SETFA
[13] = Triticum aestivum, wheat, spring (Triticum aestivum), read-out: Visual Growth Reduction (%) 14 Days After Application TRZAS
[14] = Zea mays, maize, corn (Zea mays), read-out: Visual Growth Reduction (%) 14 Days After Application ZEAMX

COC(=O)c1nc(-c2cc3sccc3cc2F)c(F)c(N)c1Cl [Compound 3.14]
melting point: 112 °C | pest or weed control at 35 g/ha [1, 3]: 0 to 29% | pest or weed control at 70 g/ha [1, 3]: 0 to 29% | pest or weed control at 140 g/ha [1, 3]: 0 to 29% | pest or weed control at 35 g/ha [1, 4]: 85 to 94% | pest or weed control at 70 g/ha [1, 4]: 95 to 100% | pest or weed control at 140 g/ha [1, 4]: 95 to 100% | pest or weed control at 35 g/ha [1, 5]: 0 to 29% | pest or weed control at 70 g/ha [1, 5]: 0 to 29% | pest or weed control at 140 g/ha [1, 5]: 0 to 29% | pest or weed control at 35 g/ha [1, 6]: 85 to 94% | pest or weed control at 70 g/ha [1, 6]: 85 to 94% | pest or weed control at 140 g/ha [1, 6]: 95 to 100% | pest or weed control at 35 g/ha [1, 7]: 30 to 44% | pest or weed control at 70 g/ha [1, 7]: 30 to 44% | pest or weed control at 140 g/ha [1, 7]: 60 to 74% | pest or weed control at 35 g/ha [1, 8]: 85 to 94% | pest or weed control at 70 g/ha [1, 8]: 85 to 94% | pest or weed control at 140 g/ha [1, 8]: 95 to 100% | pest or weed control at 35 g/ha [2, 9]: 0 to 29% | pest or weed control at 70 g/ha [2, 9]: 0 to 29% | pest or weed control at 140 g/ha [2, 9]: 0 to 29% | pest or weed control at 35 g/ha [2, 10]: 0 to 29% | pest or weed control at 70 g/ha [2, 10]: 0 to 29% | pest or weed control at 140 g/ha [2, 10]: 0 to 29% | pest or weed control at 35 g/ha [2, 11]: 0 to 29% | pest or weed control at 70 g/ha [2, 11]: 0 to 29% | pest or weed control at 140 g/ha [2, 11]: 0 to 29% | pest or weed control at 35 g/ha [2, 12]: 0 to 29% | pest or weed control at 70 g/ha [2, 12]: 0 to 29% | pest or weed control at 140 g/ha [2, 12]: 0 to 29% | pest or weed control at 35 g/ha [2, 13]: 0 to 29% | pest or weed control at 70 g/ha [2, 13]: 0 to 29% | pest or weed control at 140 g/ha [2, 13]: 0 to 29% | pest or weed control at 35 g/ha [2, 14]: 0 to 29% | pest or weed control at 70 g/ha [2, 14]: 30 to 44% | pest or weed control at 140 g/ha [2, 14]: 60 to 74%

Nc1cc(-c2ccc3ccsc3c2)nc(C(=O)O)c1Cl [Compound 3.16]
melting point: 176 to 177 °C | pest or weed control at 35 g/ha [1, 3]: 60 to 74% | pest or weed control at 70 g/ha [1, 3]: 60 to 74% | pest or weed control at 140 g/ha [1, 3]: 75 to 84% | pest or weed control at 35 g/ha [1, 4]: 85 to 94% | pest or weed control at 70 g/ha [1, 4]: 95 to 100% | pest or weed control at 140 g/ha [1, 4]: 85 to 94% | pest or weed control at 35 g/ha [1, 5]: 0 to 29% | pest or weed control at 70 g/ha [1, 5]: 0 to 29% | pest or weed control at 140 g/ha [1, 5]: 45 to 59% | pest or weed control at 35 g/ha [1, 6]: 85 to 94% | pest or weed control at 70 g/ha [1, 6]: 85 to 94% | pest or weed control at 140 g/ha [1, 6]: 85 to 94% | pest or weed control at 35 g/ha [1, 7]: 60 to 74% | pest or weed control at 70 g/ha [1, 7]: 60 to 74% | pest or weed control at 140 g/ha [1, 7]: 60 to 74% | pest or weed control at 35 g/ha [1, 8]: 0 to 29% | pest or weed control at 70 g/ha [1, 8]: 0 to 29% | pest or weed control at 140 g/ha [1, 8]: 0 to 29% | pest or weed control at 35 g/ha [2, 9]: 0 to 29% | pest or weed control at 70 g/ha [2, 9]: 0 to 29% | pest or weed control at 140 g/ha [2, 9]: 45 to 59% | pest or weed control at 35 g/ha [2, 10]: 75 to 84% | pest or weed control at 70 g/ha [2, 10]: 75 to 84% | pest or weed control at 140 g/ha [2, 10]: 75 to 84% | pest or weed control at 35 g/ha [2, 11]: 0 to 29% | pest or weed control at 70 g/ha [2, 11]: 0 to 29% | pest or weed control at 140 g/ha [2, 11]: 0 to 29% | pest or weed control at 35 g/ha [2, 12]: 0 to 29% | pest or weed control at 70 g/ha [2, 12]: 0 to 29% | pest or weed control at 140 g/ha [2, 12]: 0 to 29% | pest or weed control at 35 g/ha [2, 13]: 0 to 29% | pest or weed control at 70 g/ha [2, 13]: 0 to 29% | pest or weed control at 140 g/ha [2, 13]: 0 to 29% | pest or weed control at 35 g/ha [2, 14]: 60 to 74% | pest or weed control at 70 g/ha [2, 14]: 60 to 74% | pest or weed control at 140 g/ha [2, 14]: 75 to 84%

COC(=O)c1nc(-c2cc3sccc3cc2F)cc(N)c1Cl [Compound 3.17]
melting point: 70 °C | pest or weed control at 35 g/ha [1, 3]: 0 to 29% | pest or weed control at 70 g/ha [1, 3]: 45 to 59% | pest or weed control at 140 g/ha [1, 3]: 60 to 74% | pest or weed control at 35 g/ha [1, 4]: 75 to 84% | pest or weed control at 70 g/ha [1, 4]: 95 to 100% | pest or weed control at 140 g/ha [1, 4]: 95 to 100% | pest or weed control at 35 g/ha [1, 5]: 0 to 29% | pest or weed control at 70 g/ha [1, 5]: 0 to 29% | pest or weed control at 140 g/ha [1, 5]: 60 to 74% | pest or weed control at 35 g/ha [1, 6]: 85 to 94% | pest or weed control at 70 g/ha [1, 6]: 95 to 100% | pest or weed control at 140 g/ha [1, 6]: 95 to 100% | pest or weed control at 35 g/ha [1, 7]: 45 to 59% | pest or weed control at 70 g/ha [1, 7]: 60 to 74% | pest or weed control at 140 g/ha [1, 7]: 75 to 84% | pest or weed control at 35 g/ha [1, 8]: 0 to 29% | pest or weed control at 70 g/ha [1, 8]: 0 to 29% | pest or weed control at 140 g/ha [1, 8]: 30 to 44% | pest or weed control at 35 g/ha [2, 9]: 0 to 29% | pest or weed control at 70 g/ha [2, 9]: 0 to 29% | pest or weed control at 140 g/ha [2, 9]: 0 to 29% | pest or weed control at 35 g/ha [2, 10]: 45 to 59% | pest or weed control at 70 g/ha [2, 10]: 60 to 74% | pest or weed control at 140 g/ha [2, 10]: 95 to 100% | pest or weed control at 35 g/ha [2, 11]: 0 to 29% | pest or weed control at 70 g/ha [2, 11]: 0 to 29% | pest or weed control at 140 g/ha [2, 11]: 0 to 29% | pest or weed control at 35 g/ha [2, 12]: 0 to 29% | pest or weed control at 70 g/ha [2, 12]: 0 to 29% | pest or weed control at 140 g/ha [2, 12]: 30 to 44% | pest or weed control at 35 g/ha [2, 13]: 0 to 29% | pest or weed control at 70 g/ha [2, 13]: 0 to 29% | pest or weed control at 140 g/ha [2, 13]: 0 to 29% | pest or weed control at 35 g/ha [2, 14]: 30 to 44% | pest or weed control at 70 g/ha [2, 14]: 60 to 74% | pest or weed control at 140 g/ha [2, 14]: 75 to 84%
